Like-named read-outs stand apart in the source and are kept apart here.
What was measured:
Format in all cases: cell-based
Bacterial Spores = test: Sporicidal test against conventional compositions (Table 22); details: H2O2 35% pH 3.32, KK 2.0 wt-% (250 ppm POOA) pH 1.85, mixed peracid 1.5 wt-% (750 ppm peracid) pH 3.06, peroxyacetic 4.5 wt-% (2610 ppm POAA) pH 2.61
Method: (§1) Antimicrobial activity was determined according to two well established methods. The first method was the procedure set out in Germicidal and Detergent Sanitizing Action of Disinfectants, Official Methods of Analysis of the Association of Official Analytical Chemists, paragraph 960.09 and applicable sections, 15th Edition, 1990 (EPA Guideline 91-2). The second method was the procedure described in A.O.A.C. Use Dilution Methods, Official Methods of Analysis of the Association of Official Analytical Chemists, paragraph 955.14 and applicable sections, 15th Edition, 1990 (EPA Guideline 91-2). Briefly, antimicrobial activity of the present compositions was determined by exposing a one mL aliquot containing the target microorganism to 99 mL of the desired concentration of the test substance at the desired temperature. After the specified contact time, one mL of the test solution containing the microorganism was neutralized and enumerated for survivors.

E. coli = test: Germicidal and detergent sanitizing action suspension test (AOAC 960.09); details: Escherichia coli, 0.5 min; for log reduction at 5 ppm / log reduction at 10 ppm: 30 Second Exposure at Room Temperature; for log reduction at 20 ppm / log reduction at 40 ppm / log reduction at 60 ppm: 30 seconds
Method: as §1
(§2) Antimicrobial activity was determined as described above in Example 4.
(§3) Test 1 included 5 min exposure of the microbe to composition AB at room temperature. The microbes in test 1 included E. aerogenes ATCC 13048 and S. aureus ATCC 6538. Test 2 included 30 sec exposure of the microbe to composition AB at room temperature. The microbes in test 2 included S. aureus ATCC 6538, E. coli ATCC 11229, and P. aeruginosa ATCC 13442.

S. aureus = test: as above; details: Staphylococcus aureus, 0.5 min
Method: as §1, §2, §3

[1] = Soft water pH 3.91, Post Test pH 4.01

With `OO` [Composition H2O2, hydrogen peroxide] the “Log Reduction” value (Bacterial Spores; 40 °C, 30 sec) was 1.19 log, the “Log Reduction” value (Bacterial Spores; 40 °C, 60 sec) was 2.94 log and the “Log Reduction” value (Bacterial Spores; 40 °C, 120 sec) was >6.30 log. For the same compound, the “Log Reduction” value (Bacterial Spores; 60 °C, 10 sec) was 1.59 log, the “Log Reduction” value (Bacterial Spores; 60 °C, 20 sec) was 4.85 log and the “Log Reduction” value (Bacterial Spores; 60 °C, 30 sec) was 4.89 log. For the same compound, the “Log Reduction” value (Bacterial Spores; 80 °C, 10 sec) was >6.30 log, the “Log Reduction” value (Bacterial Spores; 80 °C, 20 sec) was >6.30 log and the “Log Reduction” value (Bacterial Spores; 80 °C, 30 sec) was >6.30 log.
For `CCCCCCCC(=O)OO` [Pure POOA Crystals, peroxyoctanoic acid], the log reduction at 5 ppm (E. coli; Milli-Q water pH 4.04, Post Test pH 4.09) was 1.34, the log reduction at 5 ppm (E. coli; Milli-Q water pH 5.00, Post Test pH 5.03) was 0.07 and the log reduction at 5 ppm (E. coli; Milli-Q water pH 5.98, Post Test pH 5.89) was 0.11. The log reduction at 5 ppm (E. coli; Milli-Q water pH 6.60, Post Test pH 6.24) was 0.09, the log reduction at 5 ppm (E. coli; [1]) was 1.26 and the log reduction at 5 ppm (E. coli; Soft water pH 5.08* (pH drift of ~0.7 pH units), Post Test pH 5.79) was 0.09. It also gave a log reduction at 5 ppm (E. coli; Soft water pH 5.91* (pH drift of ~0.7 pH units), Post Test pH 6.68) of 0.08, a log reduction at 5 ppm (E. coli; Soft water pH 9.29, Post Test pH 9.12) of 0.07 and a log reduction at 10 ppm (E. coli; Milli-Q water pH 4.04, Post Test pH 4.08) of 6.04. It also gave a log reduction at 10 ppm (E. coli; Milli-Q water pH 5.00, Post Test pH 4.98) of 0.07, a log reduction at 10 ppm (E. coli; Milli-Q water pH 5.98, Post Test pH 5.90) of 0.1 and a log reduction at 10 ppm (E. coli; Milli-Q water pH 6.60, Post Test pH 5.80) of 0.06. It also gave a log reduction at 10 ppm (E. coli; [1]) of 6.34, a log reduction at 10 ppm (E. coli; Soft water pH 5.08, Post Test pH 5.67) of 0.55 and a log reduction at 10 ppm (E. coli; Soft water pH 5.91, Post Test pH 6.68) of 0.24. It also gave a log reduction at 10 ppm (E. coli; Soft water pH 9.29, Post Test pH 9.09) of 0.07, a log reduction at 20 ppm (E. coli; 20 ppm, 500 ppm Synthetic Hard Water, pH 7.77, pH 7.68) of 0.62 and a log reduction at 40 ppm (E. coli; 40 ppm, 500 ppm Synthetic Hard Water, pH 7.77, pH 7.61) of 0.93. The log reduction at 60 ppm (E. coli; 60 ppm, 500 ppm Synthetic Hard Water, pH 7.77, pH 7.54) was 1.12, the log reduction at 60 ppm (E. coli; pH 5.08, 60 ppm, Milli-Q water, pH 5.08) was 4.68 and the log reduction at 40 ppm (E. coli; pH 5.28, 40 ppm, Milli-Q water, pH 5.28) was 2.61. It also gave a log reduction at 20 ppm (E. coli; pH 5.58, 20 ppm, Milli-Q water, pH 5.58) of 0.55, a log reduction at 5 ppm (S. aureus; 5 ppm, Milli-Q water pH 4.04, Post Test pH 4.09, 30 Second Exposure at Room Temperature, read-out: Log Reduction of S. aureus) of 6.28 and a log reduction at 5 ppm (S. aureus; 5 ppm, Milli-Q water pH 5.00, Post Test pH 5.03, 30 Second Exposure at Room Temperature, read-out: Log Reduction of S. aureus) of 5.01. It also gave a log reduction at 5 ppm (S. aureus; 5 ppm, Milli-Q water pH 5.98, Post Test pH 5.89, 30 Second Exposure at Room Temperature, read-out: Log Reduction of S. aureus) of 4.44, a log reduction at 5 ppm (S. aureus; 5 ppm, Milli-Q water pH 6.60, Post Test pH 6.24, 30 Second Exposure at Room Temperature, read-out: Log Reduction of S. aureus) of 6.04 and a log reduction at 5 ppm (S. aureus; 5 ppm, Soft water pH 3.91, Post Test pH 4.01, 30 Second Exposure at Room Temperature, read-out: Log Reduction of S. aureus) of 5.82. The log reduction at 5 ppm (S. aureus; 5 ppm, Soft water pH 5.08* (pH drift of ~0.7 pH units), Post Test pH 5.79, 30 Second Exposure at Room Temperature, read-out: Log Reduction of S. aureus) was 5.16, the log reduction at 5 ppm (S. aureus; 5 ppm, Soft water pH 5.91* (pH drift of ~0.7 pH units), Post Test pH 6.68, 30 Second Exposure at Room Temperature, read-out: Log Reduction of S. aureus) was 4.19 and the log reduction at 5 ppm (S. aureus; 5 ppm, Soft water pH 9.29, Post Test pH 9.12, 30 Second Exposure at Room Temperature, read-out: Log Reduction of S. aureus) was 0.1. For the same compound, the log reduction at 10 ppm (S. aureus; Milli-Q water pH 4.04, Post Test pH 4.08, 30 Second Exposure at Room Temperature) was > 6.82, the log reduction at 10 ppm (S. aureus; Milli-Q water pH 5.00, Post Test pH 4.98, 30 Second Exposure at Room Temperature) was > 6.82 and the log reduction at 10 ppm (S. aureus; Milli-Q water pH 5.98, Post Test pH 5.90, 30 Second Exposure at Room Temperature) was 6.52. For the same compound, the log reduction at 10 ppm (S. aureus; Milli-Q water pH 6.60, Post Test pH 5.80, 30 Second Exposure at Room Temperature) was > 6.82, the log reduction at 10 ppm (S. aureus; Soft water pH 3.91, Post Test pH 4.01, 30 Second Exposure at Room Temperature) was 6.28 and the log reduction at 10 ppm (S. aureus; Soft water pH 5.08, Post Test pH 5.67, 30 Second Exposure at Room Temperature) was 6.12. For the same compound, the log reduction at 10 ppm (S. aureus; Soft water pH 5.91, Post Test pH 6.68, 30 Second Exposure at Room Temperature) was > 6.82, the log reduction at 10 ppm (S. aureus; Soft water pH 9.29, Post Test pH 9.09, 30 Second Exposure at Room Temperature) was 0.26 and the log reduction at 5 ppm (S. aureus; concentration of 5 ppm, pH of ~5, 30 sec, RT, read-out: log reductions of Staphylococcus aureus) was 5.
